According to paper PMC6353801, “Enhanced Anti-diabetic Effect of Berberine Combined With Timosaponin B2 in Goto-Kakizaki Rats, Associated With Increased Variety and Exposure of Effective Substances Through Intestinal Absorption” (Frontiers in Pharmacology, 2019):

Experiments:
primary rat hepatocytes = assay: Hepatic metabolism in primary hepatocytes; conditions: 3 h
[1] = Liver distribution in Wistar rats; conditions: liver; for increase in Cmax on co-administration vs single treatment / exposure (AUC) of metabolite as share of the exposure of BBR / AUC ± SE / Cmax / Tmax / increase in AUC on co-administration vs single treatment: Wistar rats; for AUC ± SE / Cmax / half-life / Tmax: n = 5; for Cmax / half-life / Tmax: male, Wistar, rat, po; for Cmax: Cmax ± SE; for half-life: T1/2, Wistar rats
[2] = Body weight, food intake, organ coefficients and side effects in GK rats; format: in vivo, rat; conditions: day 42
Method: (§1) Four-week-old male GK rats were fed a high-fat diet, and age-matched non-diabetic Wistar rats were fed standard chow as the control group. Under these dietary conditions, blood glucose was estimated each week for 7 weeks in 12-h fasted rats using a portable glucometer (One Touch Sure Step Meter, Johnson & Johnson, United States) by drawing the blood from the tail vein. GK rats with fasting blood glucose levels (FBG) above 16.7 mM were considered as diabetic rats, and only uniformly diabetic rats were used in this study. […] All the drugs were suspended in 0.5% carboxymethylcellulose sodium (CMC-Na) solution for oral gavage (10 ml/kg) once per day (at 9:00) for 6 weeks. Simultaneously, the Wistar and vehicle groups received vehicle over the treatment period. Food consumption and body weight were measured every week throughout the experimental periods. Non-fasting blood glucose (NFBG) levels were determined by collecting blood samples from the tail vein (at 9:00), and FBG levels were determined after a 6-h fast (at 15:00) on days 0, 7, 14, 21, and 42. On day 28, an oral glucose tolerance test (OGTT) was performed after an overnight fast. […] On day 42, the rats were anesthetized with urethane (1.4 g/kg, dissolved in saline) after an overnight fast and were sacrificed to collect the liver, kidney, heart, and spleen. The organs were weighed after washing with saline and drying to calculate the organ coefficient, namely, the ratio between the weight of organs and the body in each rat.

GK rats [3] = assay: Oral glucose tolerance test (OGTT) in GK rats on day 28; format: in vivo, rat; conditions: after 4 weeks of treatment, glucose 2 g/kg oral
Method: as §1

GK rats [4] = assay: NFBG and FBG levels in GK rats, 6-week oral treatment; format: in vivo, rat; conditions: during 6-week treatment, TB-2 33.3, BBR 66.7, TB-2+BBR 100, metformin 200 mg/kg/day
Method: as §1

[5] = single oral BBR 66.7 mg/kg alone
[6] = single oral BBR+TB-2 (66.7+33.3 mg/kg)
[7] = single treatment (On TB-2 treatments)
[8] = 33.3 mg/kg, single oral BBR+TB-2 (66.7+33.3 mg/kg)
[9] = 66.7 mg/kg, single oral BBR 66.7 mg/kg alone

| Compound | effect on BBR metabolism and the generation of M2–M5 (primary rat hepatocytes; BBR 1 μM, ABT 1 mM, TB-2 0.1 to 30 μM) | increase in Cmax on co-administration vs single treatment [1] [%] | exposure (AUC) of metabolite as share of the exposure of BBR ([1]; TB-2+BBR treatments) [%] | AUC ± SE [1, 5] [h ∗ ng/g] | AUC ± SE [1, 6] | exposure (AUC) of metabolite as share of the exposure of BBR [1, 7] [%] | Cmax [1, 8] [ng/g] | half-life [1, 8] [min] | Tmax [1, 8] [h] | Cmax [1, 9] [ng/g] | half-life [1, 9] [min] | Tmax [1, 9] [h] | increase in AUC on co-administration vs single treatment [1] [%] | effect on organ coefficients (liver and kidney) vs vehicle [2] | decrease in the AUC of blood glucose in OGTT vs vehicle (GK rats [3]) [%] | decrease of blood glucose levels in OGTT at 30 min vs vehicle (GK rats [3]) [%] | FBG levels compared with the vehicle group (in words) (GK rats [4]) | NFBG levels compared with the vehicle group (in words) (GK rats [4]) | metabolism after incubation (in words) (primary rat hepatocytes; midazolam 20 μM, TB-2 1 μM) |
| --- | --- | --- | --- | --- | --- | --- | --- | --- | --- | --- | --- | --- | --- | --- | --- | --- | --- | --- | --- |
| Nn1nnc2ccccc21 [ABT, 1-aminobenzotriazole] | completely abrogated |  |  |  |  |  |  |  |  |  |  |  |  |  |  |  |  |  |  |
| COc1c(O)ccc2cc3[n+](cc12)CCc1cc2c(cc1-3)OCO2 [M2, Thalifendine] |  | 117 | 144 | 5935.8 ± 164.9 | 6651.2 ± 469.0 h ∗ ng/g | 182 | 1660 ± 255 | 300 | 2 | 766 ± 54.3 | 408 | 4 |  |  |  |  |  |  |  |
| COc1ccc2cc3[n+](cc2c1OC)CCc1cc(O)c(O)cc1-3 [M3, demethyleneberberine] |  | 174 | 12 | 234.5 ± 29.3 | 572.9 ± 34.7^∗∗∗ h ∗ ng/g | 7 | 106 ± 18.2 | 372 | 2 | 38.8 ± 5.6 | 1110 | 2 | 144 |  |  |  |  |  |  |
| COc1cc2c(cc1O)CC[n+]1cc3c(OC)c(OC)ccc3cc1-2 [M4, jatrorrhizine] |  | 156 | 15 | 527.5 ± 25.0 | 690.8 ± 59.6^∗ h ∗ ng/g | 16 | 200 ± 33.7 | 420 | 2 | 78.2 ± 10.7 | 582 | 2 | 31 |  |  |  |  |  |  |
| COc1cc2c(cc1O)-c1cc3ccc(OC)c(OC)c3c[n+]1CC2 [M5, columbamine] |  |  | 11 | 362.8 ± 18.7 | 489.2 ± 59.2^∗ h ∗ ng/g | 11 | 184 ± 38.4 | 360 | 2 | 89.4 ± 15.6 | 570 | 2 | 35 |  |  |  |  |  |  |
| CN(C)C(=N)N=C(N)N [metformin] |  |  |  |  |  |  |  |  |  |  |  |  |  | no effect | 11.3 | 30 | significantly decreased | did not significantly decrease |  |
| Cc1ncc2n1-c1ccc(Cl)cc1C(c1ccccc1F)=NC2 [midazolam] |  |  |  |  |  |  |  |  |  |  |  |  |  |  |  |  |  |  | significantly metabolized |
